Source: article PMC6812009, “Covalent Aurora A regulation by the metabolic integrator coenzyme A” (Redox Biology, 2019)
Like-named read-outs stand apart in the source and are kept apart here.

How the values were obtained:
Assay in all cases: Kinase profiling screen (radioactive filter-binding assay)
Format in all cases: biochemical
CHK2 = CHK2 (Homo sapiens, UniProt O96017); settings: 100 μM compound, 20 μM ATP; read-out: Kinase activity, % of activity in the absence of inhibitor
Procedure, shortened: (§1)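 CoA, dpCoA and ADP were each tested in vitro, in duplicate, at 100 μM final concentration as part of a 117-kinase panel. Recombinant kinases were used with model substrates and optimal ATP concentrations.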

DAPK1 = DAPK1 (Homo sapiens, UniProt P53355); settings: 100 μM compound, 5 μM ATP; read-out: Kinase activity, % of activity in the absence of inhibitor
Procedure, shortened: as §1

EPH-A4 = EPH-A4 (Homo sapiens, UniProt P54764); settings: 100 μM compound, 50 μM ATP; read-out: Kinase activity, % of activity in the absence of inhibitor
Procedure, shortened: as §1

EPH-B4 = target: T1, EPH-B4 (Homo sapiens, UniProt P54760); settings: 100 μM compound, 50 μM ATP; read-out: Kinase activity, % of activity in the absence of inhibitor
T1 sequence (P54760 16-987): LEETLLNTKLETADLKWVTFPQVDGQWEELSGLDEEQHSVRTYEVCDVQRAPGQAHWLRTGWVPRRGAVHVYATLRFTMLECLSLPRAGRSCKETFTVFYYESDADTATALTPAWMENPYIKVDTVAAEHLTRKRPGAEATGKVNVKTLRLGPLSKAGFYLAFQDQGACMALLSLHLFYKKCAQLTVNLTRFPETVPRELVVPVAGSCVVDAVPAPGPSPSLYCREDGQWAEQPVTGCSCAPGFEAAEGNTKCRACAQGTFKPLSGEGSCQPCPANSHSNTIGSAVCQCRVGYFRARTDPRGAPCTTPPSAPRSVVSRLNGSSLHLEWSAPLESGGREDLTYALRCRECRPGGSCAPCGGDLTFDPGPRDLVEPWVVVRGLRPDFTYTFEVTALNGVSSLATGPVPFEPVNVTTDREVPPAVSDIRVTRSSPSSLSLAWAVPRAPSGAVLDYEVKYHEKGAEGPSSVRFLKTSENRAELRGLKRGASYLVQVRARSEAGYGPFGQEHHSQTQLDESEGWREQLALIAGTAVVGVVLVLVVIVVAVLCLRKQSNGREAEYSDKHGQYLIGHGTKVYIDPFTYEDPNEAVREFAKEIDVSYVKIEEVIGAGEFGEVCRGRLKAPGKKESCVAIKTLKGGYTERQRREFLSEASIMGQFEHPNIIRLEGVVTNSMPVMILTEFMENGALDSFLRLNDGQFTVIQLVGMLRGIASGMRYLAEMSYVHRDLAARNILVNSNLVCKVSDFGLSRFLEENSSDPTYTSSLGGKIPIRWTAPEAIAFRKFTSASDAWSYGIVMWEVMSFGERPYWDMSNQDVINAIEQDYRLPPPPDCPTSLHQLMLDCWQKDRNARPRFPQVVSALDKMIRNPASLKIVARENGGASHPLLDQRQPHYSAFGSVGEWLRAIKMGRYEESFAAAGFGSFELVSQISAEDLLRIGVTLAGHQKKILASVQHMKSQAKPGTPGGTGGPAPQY
Procedure, shortened: as §1

HIPK1 = HIPK1 (Homo sapiens, UniProt Q86Z02); settings: 100 μM compound, 20 μM ATP; read-out: Kinase activity, % of activity in the absence of inhibitor
Procedure, shortened: as §1

JNK3 = JNK3 (Homo sapiens, UniProt P53779); settings: 100 μM compound, 20 μM ATP; read-out: Kinase activity, % of activity in the absence of inhibitor
Procedure, shortened: as §1

MELK = MELK (Homo sapiens, UniProt Q14680); settings: 100 μM compound, 50 μM ATP; read-out: Kinase activity, % of activity in the absence of inhibitor
Procedure, shortened: as §1

MKK1 = MKK1 (Homo sapiens, UniProt Q02750); settings: 100 μM compound, 5 μM ATP; read-out: Kinase activity, % of activity in the absence of inhibitor
Procedure, shortened: as §1

PAK5 = PAK5 (Homo sapiens, UniProt Q9P286); settings: 100 μM compound, 20 μM ATP; read-out: Kinase activity, % of activity in the absence of inhibitor
Procedure, shortened: as §1

PHKγ1 = PHKγ1 (Homo sapiens, UniProt Q16816); settings: 100 μM compound, 50 μM ATP; read-out: Kinase activity, % of activity in the absence of inhibitor
Procedure, shortened: as §1

PIM1 = PIM1 (Homo sapiens, UniProt P11309); settings: 100 μM compound, 20 μM ATP; read-out: Kinase activity, % of activity in the absence of inhibitor
Procedure, shortened: as §1

PKA = PKA (Homo sapiens, UniProt P17612); settings: for activity at 100 µM: 100 μM compound, 20 μM ATP, read-out: Kinase activity, % of activity in the absence of inhibitor
Procedure, shortened: as §1

PKCα = PKCα (Homo sapiens, UniProt P17252); settings: 100 μM compound, read-out: Kinase activity, % of activity in the absence of inhibitor
Procedure, shortened: as §1

PKCγ = PKCγ (Homo sapiens, UniProt P05129); settings: 100 μM compound, 20 μM ATP; read-out: Kinase activity, % of activity in the absence of inhibitor
Procedure, shortened: as §1

PRAK = target: T2, PRAK (Homo sapiens, UniProt Q8IW41); settings: 100 μM compound, 20 μM ATP; read-out: Kinase activity, % of activity in the absence of inhibitor
T2 sequence (Q8IW41 1-473): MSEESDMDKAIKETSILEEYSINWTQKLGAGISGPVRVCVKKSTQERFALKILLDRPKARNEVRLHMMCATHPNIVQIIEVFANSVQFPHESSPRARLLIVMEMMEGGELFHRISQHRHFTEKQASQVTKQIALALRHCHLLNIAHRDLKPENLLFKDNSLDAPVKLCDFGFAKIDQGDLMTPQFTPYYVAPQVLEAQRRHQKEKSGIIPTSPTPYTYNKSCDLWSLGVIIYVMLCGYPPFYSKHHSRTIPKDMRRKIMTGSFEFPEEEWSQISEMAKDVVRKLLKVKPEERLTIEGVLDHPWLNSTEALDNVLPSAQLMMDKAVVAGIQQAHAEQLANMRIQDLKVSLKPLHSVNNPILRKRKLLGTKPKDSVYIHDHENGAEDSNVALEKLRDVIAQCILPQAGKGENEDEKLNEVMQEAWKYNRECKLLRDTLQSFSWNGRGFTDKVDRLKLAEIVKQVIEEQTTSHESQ
Procedure, shortened: as §1

SRPK1 = SRPK1 (Homo sapiens, UniProt Q96SB4); settings: 100 μM compound, 50 μM ATP; read-out: Kinase activity, % of activity in the absence of inhibitor
Procedure, shortened: as §1

STK33 = STK33 (Homo sapiens, UniProt Q9BYT3); settings: 100 μM compound, 50 μM ATP; read-out: Kinase activity, % of activity in the absence of inhibitor
Procedure, shortened: as §1

TIE2 = TIE2 (Homo sapiens, UniProt Q02763); settings: 100 μM compound, 20 μM ATP; read-out: Kinase activity, % of activity in the absence of inhibitor
Procedure, shortened: as §1

Chain of MKK1 (Q02750 whole entry): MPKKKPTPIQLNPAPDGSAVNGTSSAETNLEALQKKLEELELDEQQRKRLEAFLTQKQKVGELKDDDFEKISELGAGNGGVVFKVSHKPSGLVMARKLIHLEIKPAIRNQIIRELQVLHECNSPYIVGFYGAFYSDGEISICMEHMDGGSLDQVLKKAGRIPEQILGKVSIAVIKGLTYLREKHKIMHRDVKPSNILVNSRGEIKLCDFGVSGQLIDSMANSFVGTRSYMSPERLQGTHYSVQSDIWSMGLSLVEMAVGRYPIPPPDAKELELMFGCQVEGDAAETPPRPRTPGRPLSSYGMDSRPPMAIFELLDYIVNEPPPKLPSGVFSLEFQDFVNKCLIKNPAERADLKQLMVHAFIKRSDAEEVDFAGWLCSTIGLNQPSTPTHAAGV
Chain of SRPK1 (Q96SB4 whole entry): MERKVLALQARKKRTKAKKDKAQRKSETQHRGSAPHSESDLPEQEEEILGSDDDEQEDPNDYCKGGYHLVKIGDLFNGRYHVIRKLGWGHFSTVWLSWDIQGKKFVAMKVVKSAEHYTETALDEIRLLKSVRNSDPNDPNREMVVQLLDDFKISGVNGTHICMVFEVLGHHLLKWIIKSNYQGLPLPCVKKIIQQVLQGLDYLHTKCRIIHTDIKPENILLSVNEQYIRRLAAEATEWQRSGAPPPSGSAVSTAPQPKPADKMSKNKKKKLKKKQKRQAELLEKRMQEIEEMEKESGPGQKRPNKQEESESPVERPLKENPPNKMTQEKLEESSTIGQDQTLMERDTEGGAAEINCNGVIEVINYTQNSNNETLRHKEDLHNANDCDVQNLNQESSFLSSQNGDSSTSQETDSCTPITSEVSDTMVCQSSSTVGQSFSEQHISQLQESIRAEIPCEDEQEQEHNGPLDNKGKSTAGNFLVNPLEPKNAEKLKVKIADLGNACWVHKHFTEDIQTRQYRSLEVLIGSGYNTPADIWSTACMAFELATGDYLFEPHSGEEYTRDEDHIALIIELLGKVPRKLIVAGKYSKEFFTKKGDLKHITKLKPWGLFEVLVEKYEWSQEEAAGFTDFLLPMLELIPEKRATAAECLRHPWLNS
Chain of TIE2 (Q02763 23-1124): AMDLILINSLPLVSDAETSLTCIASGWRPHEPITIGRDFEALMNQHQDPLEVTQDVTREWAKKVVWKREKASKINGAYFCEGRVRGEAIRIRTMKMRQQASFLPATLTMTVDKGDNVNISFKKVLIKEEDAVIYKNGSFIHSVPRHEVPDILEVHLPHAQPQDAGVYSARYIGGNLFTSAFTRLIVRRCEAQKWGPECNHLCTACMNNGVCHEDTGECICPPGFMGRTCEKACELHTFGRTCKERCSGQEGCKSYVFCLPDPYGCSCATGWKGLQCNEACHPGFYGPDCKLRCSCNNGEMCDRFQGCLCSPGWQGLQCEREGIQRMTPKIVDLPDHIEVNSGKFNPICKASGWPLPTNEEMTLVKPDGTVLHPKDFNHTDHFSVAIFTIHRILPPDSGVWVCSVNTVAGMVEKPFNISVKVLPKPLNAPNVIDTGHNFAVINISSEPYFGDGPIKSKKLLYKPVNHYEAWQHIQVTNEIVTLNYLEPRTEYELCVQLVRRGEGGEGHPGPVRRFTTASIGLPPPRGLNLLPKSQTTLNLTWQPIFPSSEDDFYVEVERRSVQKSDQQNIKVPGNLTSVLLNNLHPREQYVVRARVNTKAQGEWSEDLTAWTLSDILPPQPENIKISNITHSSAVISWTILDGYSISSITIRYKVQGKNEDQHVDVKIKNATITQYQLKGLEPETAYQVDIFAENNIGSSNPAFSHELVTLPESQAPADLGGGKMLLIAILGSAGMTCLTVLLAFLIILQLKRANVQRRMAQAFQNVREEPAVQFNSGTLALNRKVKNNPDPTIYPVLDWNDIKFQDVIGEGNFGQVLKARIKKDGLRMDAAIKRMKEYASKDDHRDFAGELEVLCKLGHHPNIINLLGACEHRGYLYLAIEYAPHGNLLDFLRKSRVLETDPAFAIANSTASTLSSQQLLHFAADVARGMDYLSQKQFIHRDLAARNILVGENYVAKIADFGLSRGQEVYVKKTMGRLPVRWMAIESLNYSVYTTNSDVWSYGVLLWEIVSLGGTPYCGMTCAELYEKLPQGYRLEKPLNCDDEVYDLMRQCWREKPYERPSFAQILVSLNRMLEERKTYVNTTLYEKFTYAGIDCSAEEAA
Chain of MELK (Q14680 whole entry): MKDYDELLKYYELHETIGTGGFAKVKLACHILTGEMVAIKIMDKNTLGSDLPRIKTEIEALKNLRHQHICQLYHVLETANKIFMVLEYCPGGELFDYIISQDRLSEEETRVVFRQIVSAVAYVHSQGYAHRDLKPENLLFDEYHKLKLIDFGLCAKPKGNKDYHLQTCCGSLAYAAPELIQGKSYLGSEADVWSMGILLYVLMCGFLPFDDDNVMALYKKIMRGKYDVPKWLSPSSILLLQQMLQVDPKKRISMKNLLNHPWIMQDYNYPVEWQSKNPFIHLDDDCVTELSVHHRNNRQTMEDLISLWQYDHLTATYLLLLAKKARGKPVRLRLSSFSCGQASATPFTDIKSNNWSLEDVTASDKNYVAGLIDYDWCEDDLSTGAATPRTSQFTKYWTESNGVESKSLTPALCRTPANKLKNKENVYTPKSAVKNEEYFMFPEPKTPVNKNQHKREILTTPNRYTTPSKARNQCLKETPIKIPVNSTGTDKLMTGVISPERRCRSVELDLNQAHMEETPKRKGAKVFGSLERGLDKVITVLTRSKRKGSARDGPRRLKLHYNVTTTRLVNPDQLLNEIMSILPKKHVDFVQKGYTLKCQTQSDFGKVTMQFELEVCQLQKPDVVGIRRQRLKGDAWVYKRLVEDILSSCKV
Chain of PHKγ1 (Q16816 whole entry): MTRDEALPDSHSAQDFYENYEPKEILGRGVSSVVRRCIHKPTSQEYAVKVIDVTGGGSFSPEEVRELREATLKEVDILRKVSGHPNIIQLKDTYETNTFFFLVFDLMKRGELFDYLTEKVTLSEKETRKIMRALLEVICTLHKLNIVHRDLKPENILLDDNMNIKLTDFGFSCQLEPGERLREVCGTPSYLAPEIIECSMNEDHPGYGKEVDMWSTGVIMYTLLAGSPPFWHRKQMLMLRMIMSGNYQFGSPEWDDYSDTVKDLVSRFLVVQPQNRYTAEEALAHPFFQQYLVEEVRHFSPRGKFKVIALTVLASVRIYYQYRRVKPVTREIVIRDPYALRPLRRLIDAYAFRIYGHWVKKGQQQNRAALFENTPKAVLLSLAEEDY
Chain of PIM1 (P11309 whole entry): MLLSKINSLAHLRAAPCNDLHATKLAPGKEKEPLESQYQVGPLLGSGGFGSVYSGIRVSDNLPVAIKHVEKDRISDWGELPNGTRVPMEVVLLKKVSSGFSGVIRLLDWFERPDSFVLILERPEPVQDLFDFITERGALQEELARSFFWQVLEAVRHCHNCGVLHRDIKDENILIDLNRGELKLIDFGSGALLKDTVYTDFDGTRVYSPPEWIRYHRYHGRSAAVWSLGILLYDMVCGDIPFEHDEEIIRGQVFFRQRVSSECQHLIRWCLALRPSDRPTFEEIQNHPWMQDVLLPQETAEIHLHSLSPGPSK

Compound	activity at 100 µM (CHK2)	activity at 100 µM (DAPK1)	activity at 100 µM (EPH-A4)	activity at 100 µM (EPH-B4)	activity at 100 µM (HIPK1)	activity at 100 µM (JNK3)	activity at 100 µM (MELK)	activity at 100 µM (MKK1)	activity at 100 µM (PAK5)	activity at 100 µM (PHKγ1)	activity at 100 µM (PIM1)	activity at 100 µM (PKA)	activity at 100 µM (PKCα; 5 μM ATP)	activity at 100 µM (PKCα; 20 μM ATP)	activity at 100 µM (PKCγ)	activity at 100 µM (PRAK)	activity at 100 µM (SRPK1)	activity at 100 µM (STK33)	activity at 100 µM (TIE2)	PKA inhibition in vitro (PKA; kinase profiling, 100 μM)
Nc1ncnc2c1ncn2C1OC(COP(=O)(O)OP(=O)(O)O)C(O)C1O (stereo not shown) [ADP]	43.2%	10.3%	32.5%	9.8%	31.7%	58.6%	63.5%	16.4%	79.5%	75.6%	46.1%	27.8%	38.6%	76.5%	71.9%	15.2%	60.9%	54.6%	33.1%	–
CC(C)(COP(=O)(O)OP(=O)(O)OC[C@H]1O[C@@H](n2cnc3c(N)ncnc32)[C@H](O)[C@@H]1OP(=O)(O)O)[C@@H](O)C(=O)NCCC(=O)NCCS [CoA, Coenzyme A]	88.9%	106%	115%	107%	115%	101%	76.3%	107%	70.6%	105%	103%	98.9%	104%	78.1%	70.2%	99.7%	116%	71.8%	93%	not detected
CC(C)(COP(=O)(O)OP(=O)(O)OCC1OC(n2cnc3c(N)ncnc32)C(O)C1O)C(O)C(=O)NCCC(=O)NCCS (stereo not shown) [dpCoA, dephospho-CoA]	56%	64.4%	75.6%	62.1%	92.8%	63.2%	104%	52.3%	86%	90.9%	97.7%	81.3%	76.8%	88.9%	66.4%	77.7%	89.1%	83.3%	83.4%	–
